According to PubChem BioAssay (NCI):
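Step 1: Grow cells in 96-well plates. Step 2: Expose to compound for 48 hours at 5 concentrations. Step 3: Interpolate endpoints linearly; if unreached, use highest concentration. TGI: concentration producing complete growth inhibition.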

Tests used:
Assay in all cases: NCI-60 cell line screen, 48 h
A498 renal = system: A498 renal
A549 NSCLC = system: A549 NSCLC
HCT-116 colon = system: HCT-116 colon
HOP-92 NSCLC = system: HOP-92 NSCLC
K-562 leukemia = system: K-562 leukemia
KM12 colon = system: KM12 colon
MOLT-4 leukemia = system: MOLT-4 leukemia
NCI-H226 lung = system: NCI-H226 lung
NCI-H460 lung = system: NCI-H460 lung
NCI/ADR-RES ovarian = system: NCI/ADR-RES ovarian
OVCAR-3 ovarian = system: OVCAR-3 ovarian
OVCAR-5 ovarian = system: OVCAR-5 ovarian
OVCAR-8 ovarian = system: OVCAR-8 ovarian
PC-3 prostate = system: PC-3 prostate
RXF 393 renal = system: RXF 393 renal
SF-268 CNS = system: SF-268 CNS
SNB-19 CNS = system: SNB-19 CNS
SNB-75 CNS = system: SNB-75 CNS
UO-31 renal = system: UO-31 renal

Row | SMILES | TGI (A498 renal) [µM] | TGI (A549 NSCLC) [µM] | TGI (HCT-116 colon) [µM] | TGI (HOP-92 NSCLC) [µM] | TGI (K-562 leukemia) [µM] | TGI (KM12 colon) [µM] | TGI (MOLT-4 leukemia) [µM] | TGI (NCI-H226 lung) [µM] | TGI (NCI-H460 lung) [µM] | TGI (NCI/ADR-RES ovarian) [µM] | TGI (OVCAR-3 ovarian) [µM] | TGI (OVCAR-5 ovarian) [µM] | TGI (OVCAR-8 ovarian) [µM] | TGI (PC-3 prostate) [µM] | TGI (RXF 393 renal) [µM] | TGI (SF-268 CNS) [µM] | TGI (SNB-19 CNS) [µM] | TGI (SNB-75 CNS) [µM] | TGI (UO-31 renal) [µM]
1 | COc1cc(C(C[N+](=O)[O-])SC(C)=O)ccc1OCc1ccccc1 (stereo unspecified) | 15.4 | 25.4 | 8.26 | 36.2 | 5.45 | 14 | 5.52 | 18.1 | 25.1 | > 38.3 | 7.87 | 29.6 | 13.6 | 17.4 | 3.18 | > 100 | 20.9 | 32.4 | 10.3
2 | COc1cc(COC(=O)N2CC=CC2C(=O)O)c([N+](=O)[O-])cc1OC (stereo unspecified) | > 100 | > 100 | > 100 | > 100 | > 100 | > 100 | > 100 | > 100 | > 100 | > 100 | > 100 | > 100 | > 100 | > 100 | > 100 | > 100 | > 100 | > 100 | > 100
3 | CCCCCCSCC/C(C)=N\OC | > 100 | > 100 | > 100 | > 100 | > 100 | > 100 | > 100 | > 100 | > 100 | > 100 | > 100 | > 100 | > 100 | > 100 | > 100 | > 100 | > 100 | > 100 | > 100
4 | CCOC(=O)c1nc2ccccc2nc1Nc1ccc(OC)cc1 | 84.5 | > 100 | > 100 | 54.4 | > 100 | > 100 | > 100 | > 100 | > 100 | > 100 | 70.4 | > 100 | > 100 | > 100 | 39.7 | > 100 | 83.9 | 93.2 | > 100
